# Data as given in PubChem BioAssay (NCI).
#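 Five concentrations, 48 hours, 96-well plates. GI50: concentration for 50% inhibition of growth. TGI denotes the concentration required for complete inhibition of growth.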
# Key:
# Assay in all cases: NCI tumour cell line growth inhibition, 48 h
# NCI-H522 lung = system: NCI-H522 lung
# MCF7 breast = system: MCF7 breast
# KM12 colon = system: KM12 colon
# CCRF-CEM leukemia = system: CCRF-CEM leukemia
# SF-295 CNS = system: SF-295 CNS
# MALME-3M melanoma = system: MALME-3M melanoma
# UACC-257 melanoma = system: UACC-257 melanoma
# A498 renal = system: A498 renal
# SN12C renal = system: SN12C renal
# UO-31 renal = system: UO-31 renal
# HS 578T breast = system: HS 578T breast
# NCI-H226 lung = system: NCI-H226 lung
# SNB-19 CNS = system: SNB-19 CNS
# NCI-H460 lung = system: NCI-H460 lung
# ACHN renal = system: ACHN renal
# HCC-2998 colon = system: HCC-2998 colon
# SK-MEL-2 melanoma = system: SK-MEL-2 melanoma
# RXF 393 renal = system: RXF 393 renal
# HOP-92 NSCLC = system: HOP-92 NSCLC
# SK-OV-3 ovarian = system: SK-OV-3 ovarian
# TK-10 renal = system: TK-10 renal
# MDA-MB-435 = system: MDA-MB-435
# NCI/ADR-RES ovarian = system: NCI/ADR-RES ovarian
# A549 NSCLC = system: A549 NSCLC
# U251 CNS = system: U251 CNS
# SW-620 colon = system: SW-620 colon
# PC-3 prostate = system: PC-3 prostate
# HL-60(TB) leukemia = system: HL-60(TB) leukemia
# SR leukemia = system: SR leukemia
# HCT-15 colon = system: HCT-15 colon
# COLO 205 colon = system: COLO 205 colon
# UACC-62 melanoma = system: UACC-62 melanoma
# HT29 colon = system: HT29 colon
# DU-145 prostate = system: DU-145 prostate
# HOP-62 NSCLC = system: HOP-62 NSCLC
# RPMI-8226 leukemia = system: RPMI-8226 leukemia
# K-562 leukemia = system: K-562 leukemia
# T-47D breast = system: T-47D breast
# IGROV1 ovarian = system: IGROV1 ovarian
# OVCAR-4 ovarian = system: OVCAR-4 ovarian
# BT-549 breast = system: BT-549 breast
# SF-539 CNS = system: SF-539 CNS
# SK-MEL-5 melanoma = system: SK-MEL-5 melanoma
# OVCAR-3 ovarian = system: OVCAR-3 ovarian
# OVCAR-5 ovarian = system: OVCAR-5 ovarian
# SK-MEL-28 melanoma = system: SK-MEL-28 melanoma
# EKVX NSCLC = system: EKVX NSCLC
# SF-268 CNS = system: SF-268 CNS
# LOX IMVI melanoma = system: LOX IMVI melanoma
# MOLT-4 leukemia = system: MOLT-4 leukemia
# OVCAR-8 ovarian = system: OVCAR-8 ovarian
# MDA-MB-231 breast = system: MDA-MB-231 breast
# CAKI-1 renal = system: CAKI-1 renal
# 786-0 renal = system: 786-0 renal
# NCI-H23 lung = system: NCI-H23 lung
structure (smiles),measurement,setting,value
CN1CCN(CCCOc2cc(O)c3c(=O)cc(-c4ccccc4)oc3c2)CC1,GI50,NCI-H522 lung,21.6 µM
same,TGI,NCI-H522 lung,47 µM
same,GI50,MCF7 breast,15.3 µM
same,TGI,MCF7 breast,30 µM
same,GI50,KM12 colon,22 µM
same,TGI,KM12 colon,54.7 µM
same,GI50,CCRF-CEM leukemia,23.6 µM
same,TGI,CCRF-CEM leukemia,56.7 µM
same,GI50,SF-295 CNS,21.1 µM
same,TGI,SF-295 CNS,44.5 µM
same,GI50,MALME-3M melanoma,20.8 µM
same,TGI,MALME-3M melanoma,42.6 µM
same,GI50,UACC-257 melanoma,19.4 µM
same,TGI,UACC-257 melanoma,41.1 µM
same,GI50,A498 renal,22 µM
same,TGI,A498 renal,43.4 µM
same,GI50,SN12C renal,18.9 µM
same,TGI,SN12C renal,41.3 µM
same,GI50,UO-31 renal,16.9 µM
same,TGI,UO-31 renal,47.3 µM
same,GI50,HS 578T breast,23 µM
same,TGI,HS 578T breast,52.9 µM
same,GI50,NCI-H226 lung,19.5 µM
same,TGI,NCI-H226 lung,37 µM
same,GI50,SNB-19 CNS,24.9 µM
same,TGI,SNB-19 CNS,63.5 µM
same,GI50,NCI-H460 lung,16.7 µM
same,TGI,NCI-H460 lung,34.5 µM
same,GI50,ACHN renal,16 µM
same,TGI,ACHN renal,29.4 µM
same,GI50,HCC-2998 colon,14.3 µM
same,TGI,HCC-2998 colon,27.3 µM
same,GI50,SK-MEL-2 melanoma,35.3 µM
same,TGI,SK-MEL-2 melanoma,> 100 µM
same,GI50,RXF 393 renal,30.2 µM
same,TGI,RXF 393 renal,84 µM
same,GI50,HOP-92 NSCLC,14.5 µM
same,TGI,HOP-92 NSCLC,42.9 µM
same,GI50,SK-OV-3 ovarian,19.4 µM
same,TGI,SK-OV-3 ovarian,38.4 µM
same,GI50,TK-10 renal,20.5 µM
same,TGI,TK-10 renal,48.3 µM
same,GI50,MDA-MB-435,13.7 µM
same,TGI,MDA-MB-435,32.9 µM
same,GI50,NCI/ADR-RES ovarian,18.6 µM
same,TGI,NCI/ADR-RES ovarian,43.2 µM
same,GI50,A549 NSCLC,28.8 µM
same,TGI,A549 NSCLC,91.1 µM
same,GI50,U251 CNS,15.1 µM
same,TGI,U251 CNS,29 µM
same,GI50,SW-620 colon,19.5 µM
same,TGI,SW-620 colon,42.4 µM
same,GI50,PC-3 prostate,31.4 µM
same,TGI,PC-3 prostate,> 100 µM
same,GI50,HL-60(TB) leukemia,19.1 µM
same,TGI,HL-60(TB) leukemia,39.5 µM
same,GI50,SR leukemia,16.9 µM
same,TGI,SR leukemia,44.6 µM
same,GI50,HCT-15 colon,4.6 µM
same,TGI,HCT-15 colon,16.3 µM
same,GI50,COLO 205 colon,15.5 µM
same,TGI,COLO 205 colon,31.6 µM
same,GI50,UACC-62 melanoma,16.3 µM
same,TGI,UACC-62 melanoma,29.9 µM
same,GI50,HT29 colon,14.5 µM
same,TGI,HT29 colon,30.4 µM
same,GI50,DU-145 prostate,25.3 µM
same,TGI,DU-145 prostate,73.7 µM
same,GI50,HOP-62 NSCLC,16.6 µM
same,TGI,HOP-62 NSCLC,32 µM
same,GI50,RPMI-8226 leukemia,21.3 µM
same,TGI,RPMI-8226 leukemia,55.2 µM
same,GI50,K-562 leukemia,6.98 µM
same,TGI,K-562 leukemia,21.9 µM
same,GI50,T-47D breast,28 µM
same,TGI,T-47D breast,79.2 µM
same,GI50,IGROV1 ovarian,24.9 µM
same,TGI,IGROV1 ovarian,95.3 µM
same,GI50,OVCAR-4 ovarian,16.3 µM
same,TGI,OVCAR-4 ovarian,41 µM
same,GI50,BT-549 breast,21.1 µM
same,TGI,BT-549 breast,46 µM
same,GI50,SF-539 CNS,17.2 µM
same,TGI,SF-539 CNS,33.1 µM
same,GI50,SK-MEL-5 melanoma,10.3 µM
same,TGI,SK-MEL-5 melanoma,23.1 µM
same,GI50,OVCAR-3 ovarian,20.8 µM
same,TGI,OVCAR-3 ovarian,54.9 µM
same,GI50,OVCAR-5 ovarian,20.3 µM
same,TGI,OVCAR-5 ovarian,43.6 µM
same,GI50,SK-MEL-28 melanoma,16.1 µM
same,TGI,SK-MEL-28 melanoma,30.6 µM
same,GI50,EKVX NSCLC,37.6 µM
same,TGI,EKVX NSCLC,> 100 µM
same,GI50,SF-268 CNS,20.1 µM
same,TGI,SF-268 CNS,48.7 µM
same,GI50,LOX IMVI melanoma,14.1 µM
same,TGI,LOX IMVI melanoma,28.4 µM
same,GI50,MOLT-4 leukemia,17.3 µM
same,TGI,MOLT-4 leukemia,38.8 µM
same,GI50,OVCAR-8 ovarian,37.1 µM
same,TGI,OVCAR-8 ovarian,> 100 µM
same,GI50,MDA-MB-231 breast,16.3 µM
same,TGI,MDA-MB-231 breast,31.7 µM
same,GI50,CAKI-1 renal,15.1 µM
same,TGI,CAKI-1 renal,33.4 µM
same,GI50,786-0 renal,20.6 µM
same,TGI,786-0 renal,43.3 µM
same,GI50,NCI-H23 lung,19.9 µM
same,TGI,NCI-H23 lung,43.3 µM
